# Reference: patent publication US20230357272A1, “OCTAHYDROPYRAZINODIAZANAPHTHYRIDINE DIONE COMPOUNDS” (MEDSHINE DISCOVERY INC., priority 2020, published 2023)
# pIC50: −log10 of the molar value.
# Key:
# NCI-H358 cells = test: Anti-proliferation experiment of H358 cells (CellTiter-Glo); assay type: cell-based; conditions: Homo sapiens, 120 h, 5 days
# Protocol: RPMI-1640 culture medium, penicillin/streptomycin antibiotics purchased from Wisent, and fetal bovine serum purchased from Biosera. CellTiter-Glo (chemiluminescence detection reagent for cell viability) reagent purchased from Promega. NCI-H358 cell line purchased from the Cell Bank of the Chinese Academy of Sciences. Nivo multi-label analyzer (PerkinElmer).
# NCI-H358 cells were seeded in a white 96-well plate with 80 μL of cell suspension per well, which contained 4000 NCI-H358 cells. The cell plate was incubated overnight in a carbon dioxide incubator.
# (§1) The compounds to be tested were diluted 3-fold with a row gun to the ninth concentration, that is, from 2 mM to 304 nM, and a double-duplication experiment was set up. 78 μL of culture medium was added to a middle plate, and then 2 μL of gradient diluted compound per well was transferred to the middle plate according to the corresponding position. After being thoroughly mixed, 20 μL per well was transferred to the cell plate. The concentration range of the compound transferred to the cell plate was 10 μM to 1.52 nM. The cell plate was placed in the carbon dioxide incubator for 5 days. Another cell plate was prepared, and the signal value was read as the maximum value (Max value in the equation below) on the day of administration to participate in data analysis. 25 μL of cell viability chemiluminescence detection reagent was added to each well of the cell plate, and incubated at room temperature for 10 minutes to stabilize the luminescence signal. A multi-label analyzer was used for reading.
# 25 μL of cell viability chemiluminescence detection reagent was added to each well of the cell plate, and incubated at room temperature for 10 minutes to stabilize the luminescence signal. A multi-label analyzer was used for reading.
# Using the equation (Sample−Min)/(Max−Min)*100% to convert the raw data into inhibition rate, and the value of IC50 might be obtained by curve fitting with four parameters (obtained by “log (inhibitor) vs. response—Variable slope” mode in GraphPad Prism). Table 1 provides the inhibitory activity of the compounds of the present disclosure on the proliferation of NCI-H358 cells.
# MIA-PA-CA-2 cells = test: Anti-proliferation experiment of MIA-PA-CA-2 cells (CellTiter-Glo); assay type: cell-based; conditions: Homo sapiens, MIA PaCa-2, 72 h, 3 days
# Protocol: DMEM culture medium, fetal bovine serum purchased from Biosera, and horse serum purchased from Gibco. CellTiter-Glo (chemiluminescence detection reagent for cell viability) reagent purchased from Promega. MIA-PA-CA-2 cell line purchased from Nanjing CoBioer Biotechnology Co., Ltd. EnVision multi-label analyzer (PerkinElmer).
# MIA-PA-CA-2 cells were seeded in a white 96-well plate with 80 μL of cell suspension per well, which contained 1000 MIA-PA-CA-2 cells. The cell plate was incubated overnight in a carbon dioxide incubator.
# as §1, with “diluted 5-fold” for “diluted 3-fold”, “the eighth” for “the ninth”, “to 26” for “to 304”, “to 0.13” for “to 1.52”, “for 3” for “for 5”
# Using the equation (Sample−Min)/(Max−Min)*100% to convert the raw data into inhibition rate, and the value of IC50 might be obtained by curve fitting with four parameters (obtained by “log (inhibitor)/response—Variable scope” mode in GraphPad Prism software). Table 2 provides the inhibitory activity of the compounds of the present disclosure on the proliferation of MIA-PA-CA-2 cells.
Compound,pIC50 (NCI-H358 cells),pIC50 (MIA-PA-CA-2 cells)
C=CC(=O)N1CCN2c3c(c(=O)n(-c4c(C(C)C)ncnc4C(C)C)c4c(=O)n(-c5c(N)c(Cl)cc(Cl)c5F)c(C(F)(F)F)cc34)OCC[C@H]2C1 [Compound 4],9.05,9.00
C=CC(=O)N1CCN2c3c(c(=O)n(-c4c(CC)ncnc4CC)c4c(=O)n(-c5c(N)c(Cl)cc(Cl)c5F)c(C(F)(F)F)cc34)OCC[C@H]2C1 [Compound 5],8.40,8.30
C=CC(=O)N1CCN2c3c(c(=O)n(-c4c(CC)cncc4CC)c4c(=O)n(-c5c(N)c(Cl)cc(Cl)c5F)c(C(F)(F)F)cc34)OCC[C@H]2C1 [Compound 6],8.70,8.40
